Test results reported in US7236891B2, “Methods of determining polypeptide structure and function” (Queen's University at Kingston, priority 2001, dated 2007).
“Also recorded” adds a separate entry of the source. Read-outs that look alike come from different tables or passages of the source. Each block holds one molecule with its values, some of them ahead of it. Square brackets hold non-standard residues; d marks the D form. Peptide text beside a SMILES is read from it. Nle = CCCC[C@H](N)C(=O)O

Assays:
μI-II (C115S) [1] = target: T1, μI-II (C115S) (Rattus norvegicus, UniProt P97571, C115S); assay: Intrinsic tryptophan fluorescence of μI-II during Ca2+ titration; type: binding; settings: for ability to substitute for CaCl2 in the intrinsic tryptophan fluorescence change: concentrations up to 30 mM
T1 construct: extended from residue 29 (MG^29RHENA-) to residue 356; added N-terminal Met (N); made in house; host or cells: E. coli BL21 (DE3)
Procedure: Intrinsic tryptophan fluorescence measurements were performed in a Perkin Elmer LS50B fluorescence spectrophotometer at 22° C. using a stirrer-adapted 4 mL cuvette (Helmma). Excitation and emission wavelength were set at 280 nm and 340 nm, respectively. The reaction buffer was the same as that used for activity measurements against SLY-MCA, and the protein concentration was 0.65 μM. […] CaCl2 (50 mM) dissolved in the reaction buffer was pumped continuously (4 μL/min, Harvard Apparatus pump 22) using a 250 μL microsyringe (Hamilton-microliter 1000 series gastight) through a tube into the cuvette. The reaction mixture was vigorously mixed using the internal magnetic stirrer of the fluorimeter. The fluorescence intensity was corrected for dilution, and the normalised data was fitted to the Hill equation y=x^n/k^n+x^n), where y is the fraction of maximum intensity change, k=[Ca^2+]0.5 (the value of [Ca^2+] at which half-maximum intensity change is observed, n is the Hill coefficient, and x is [Ca^2+]. Intrinsic tryptophan fluorescence measurements were also performed under the same buffer conditions but substituting for CaCl2, either MgCl2, MnCl2, or ZnCl2 up to 30 mM. To test the aggregation state of the domain I–II constructs, relative 90° light scattering was monitored under the same reaction conditions by setting both the excitation and emission wavelength of the spectrophotometer to 320 nm. No significant aggregation was detected even at the highest CaCl2 concentration (30 mM) tested.

[2] = target: T2, μI-II (domain I-II construct from μ-calpain) (Rattus norvegicus, UniProt P97571); assay: Proteolytic activity of μI-II against synthetic peptide substrate SLY-MCA; type: biochemical; settings: for inhibition of μI-II protease activity: qualitative, data not shown
T2 construct: extended from residue 29 (MG^29RHENA-) to residue 356; added N-terminal Met (N); made in house; host or cells: E. coli BL21 (DE3)
Procedure: (§1) Proteolytic digestion of the C105S m-calpain heterodimer was performed at 22° C. in a final volume of less than 150 μL, in 50 mM HEPES pH 7.6, 1 mg/mL calpain, 0.15 mg/mL μI-II, without divalent cations, or with 1 mM CaCl2 or 1 mM MgCl2. Autolysis of μI-II was performed under the same conditions but instead of the C105S m-calpain substrate, 2.5 mg/mL of μI-II was used. The reaction was stopped by the addition of 2×SDS sample buffer. At specific time intervals aliquots were removed and analyzed by SDS-PAGE using a 9% gel. Control reactions lacked the protease domain I–II. The activity of μI-II against the peptide substrate SLY-MCA (Sigma) was also tested in 50 mM HEPES pH 7.6, 200 mM NaCl, 1 mM DTT, 5–30 mM divalent cation (CaCl2, MgCl2, MnCl2, or ZnCl2), 0.75 mM SLY-MCA, 2.5 μM μI-II, in a final volume of 3 mL. MCA release was monitored in a LS50B Perkin Elmer luminescence spectrometer set with excitation and the emission wavelengths at 360 nm and 460 nm, respectively. Steady-state kinetics analysis was performed under the same buffer conditions but in the presence of 0.5 mM CaCl2, by varying SLY-MCA concentration from 0.02–1.5 mM. The steady-state parameters (kcat and KM) were obtained from the Michaelis-Menten plot.

μI-II (C115S) [3] = target: T1, μI-II (C115S); assay: Intrinsic tryptophan fluorescence of μI-II during Ca2+ titration; type: binding; settings: read-out: Ca2+ requirement for activation of μI-II
intact μ-calpain = target: T3, intact μ-calpain (Homo sapiens, UniProt P07384); settings: reported values; read-out: Ca2+ for half-maximal activation of intact μ-calpain; cited from earlier work
T3 sequence (P07384 1-714): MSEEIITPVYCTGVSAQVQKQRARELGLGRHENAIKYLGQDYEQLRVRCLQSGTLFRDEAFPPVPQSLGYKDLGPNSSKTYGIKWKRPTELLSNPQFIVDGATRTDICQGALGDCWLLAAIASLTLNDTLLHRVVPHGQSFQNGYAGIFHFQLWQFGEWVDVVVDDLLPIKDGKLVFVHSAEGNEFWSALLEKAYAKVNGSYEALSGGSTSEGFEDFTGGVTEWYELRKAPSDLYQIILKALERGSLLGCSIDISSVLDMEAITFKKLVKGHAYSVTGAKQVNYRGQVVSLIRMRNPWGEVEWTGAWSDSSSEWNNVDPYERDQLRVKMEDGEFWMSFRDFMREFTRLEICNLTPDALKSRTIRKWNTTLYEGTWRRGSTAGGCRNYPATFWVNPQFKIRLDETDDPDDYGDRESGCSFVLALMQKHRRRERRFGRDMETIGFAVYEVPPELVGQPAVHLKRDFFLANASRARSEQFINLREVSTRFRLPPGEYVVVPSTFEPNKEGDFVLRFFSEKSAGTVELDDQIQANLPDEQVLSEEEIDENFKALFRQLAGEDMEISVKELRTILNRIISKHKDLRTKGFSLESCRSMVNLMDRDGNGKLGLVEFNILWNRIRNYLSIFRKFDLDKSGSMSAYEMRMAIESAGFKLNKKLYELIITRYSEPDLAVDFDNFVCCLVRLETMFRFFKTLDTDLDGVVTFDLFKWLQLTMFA
T3 sequence (P04632 1-268 partner): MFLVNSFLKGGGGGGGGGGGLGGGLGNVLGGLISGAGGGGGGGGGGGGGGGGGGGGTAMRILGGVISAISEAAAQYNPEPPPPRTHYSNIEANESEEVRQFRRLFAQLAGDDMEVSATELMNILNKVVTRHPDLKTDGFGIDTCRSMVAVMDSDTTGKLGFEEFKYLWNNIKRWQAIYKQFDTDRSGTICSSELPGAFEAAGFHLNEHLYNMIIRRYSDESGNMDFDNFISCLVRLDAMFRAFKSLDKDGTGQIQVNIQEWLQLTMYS

μI-II [4] = target: T4, μI-II (Rattus norvegicus, UniProt P97571); assay: Proteolysis of inactive C105S m-calpain heterodimer by μI-II; type: biochemical; settings: 1 mM MgCl2
T4 construct: extended from residue 29 (MG^29RHENA-) to residue 356; added N-terminal Met (N); made in house; host or cells: E. coli BL21 (DE3)
Procedure: as §1

μI-II [5] = target: T4, μI-II; assay: Autolysis of μI-II in 1 mM CaCl2 (SDS-PAGE); settings: 1 mM CaCl2, 20 hours
Procedure: as §1

T1 sequence (P97571 29-356 C115S): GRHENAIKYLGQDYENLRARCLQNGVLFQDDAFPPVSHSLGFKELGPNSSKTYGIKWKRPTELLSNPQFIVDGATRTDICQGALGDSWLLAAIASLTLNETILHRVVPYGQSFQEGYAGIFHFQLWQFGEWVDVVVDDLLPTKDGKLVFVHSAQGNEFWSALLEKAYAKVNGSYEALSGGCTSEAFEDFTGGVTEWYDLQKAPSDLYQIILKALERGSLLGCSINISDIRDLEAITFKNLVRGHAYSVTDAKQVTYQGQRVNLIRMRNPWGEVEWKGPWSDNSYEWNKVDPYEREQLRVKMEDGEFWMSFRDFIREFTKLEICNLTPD
T2 sequence (P97571 29-356): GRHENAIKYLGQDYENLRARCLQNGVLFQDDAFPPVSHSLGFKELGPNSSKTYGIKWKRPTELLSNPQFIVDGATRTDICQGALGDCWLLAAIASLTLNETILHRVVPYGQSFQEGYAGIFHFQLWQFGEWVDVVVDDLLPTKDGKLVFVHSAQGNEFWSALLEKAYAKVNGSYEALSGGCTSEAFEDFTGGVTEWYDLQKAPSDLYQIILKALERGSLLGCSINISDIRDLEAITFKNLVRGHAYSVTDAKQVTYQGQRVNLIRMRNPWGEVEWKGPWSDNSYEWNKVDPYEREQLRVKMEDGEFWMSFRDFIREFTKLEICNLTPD
T4 sequence (P97571 29-356): as above

Molecule: O=C(O)CN(CCN(CC(=O)O)CC(=O)O)CC(=O)O [EDTA, reference compound]
reversal of the Ca2+-induced fluorescence change (μI-II (C115S) [1]; data not shown): completely reversed

Molecule: [Cl][Mn][Cl] [MnCl2]
ability to substitute for CaCl2 in the intrinsic tryptophan fluorescence change (μI-II (C115S) [1]): unable to substitute

Molecule: CCCC[C@@H](C=O)NC(=O)[C@H](CC(C)C)NC(=O)[C@H](CC(C)C)NC(C)=O [calpain inhibitor I] (Ac-Leu-Leu-[Nle]-aldehyde)
inhibition of μI-II protease activity [2]: abolished; also recorded: inhibited

Molecule: CC(=O)N[C@@H](CC(C)C)C(=O)N[C@@H](CC(C)C)C(=O)N[C@H](C=O)CCCNC(=N)N [leupeptin]
inhibition of μI-II protease activity [2]: abolished; also recorded: inhibited

Molecule: μI-II: recombinant protease core, domains I and II (residues 29-356) of rat μ-calpain with C-terminal His tag
catalytic efficiency relative to the full enzyme ([2]; SLY-MCA digestion): ~2%
decrease in turnover (kcat) compared to intact m-calpain ([2]; SLY-MCA digestion): 35 fold
μI-II still present after autodigestion (μI-II [5]): Over 50%

More lines, main results first:

effect on W298 fluorescence of μI-II (μI-II (C115S) [1]; μI-II-E64 complex): quenching
SLY-MCA hydrolysis by E64-reacted μI-II (μI-II-E64) ([2]; C115 μI-II reacted with E64 in 5 mM CaCl2): unable to hydrolyse SLY-MCA
inhibition of μI-II protease activity [2]: abolished; also recorded: inhibited
Molecule: CC(C)C[C@H](NC(=O)[C@H]1O[C@@H]1C(=O)O)C(=O)NCCCCN=C(N)N (relative stereo) [E64, trans-epoxysuccinyl-L-leucilamido(4-guanidino)-butane]

CaCl2 concentration at which the fluorescence increase was >99% complete (μI-II (C115S) [1]): ~500 µM
CaCl2 concentration at which the fluorescence increase was first noticeable (μI-II (C115S) [1]): ~5 µM
total increase in the fluorescence intensity (μI-II (C115S) [1]; CaCl2 titration): ~36.8±0.5%
Hill coefficient (μI-II (C115S) [1]; CaCl2 titration fitted to the Hill equation): 2.72±0.42
EC50 (μI-II (C115S) [1]; CaCl2 titration, excitation 280 nm, emission 340 nm, read-out: half-maximal change in intrinsic tryptophan fluorescence): 41.8 ± 7.1 µM
EC50 (μI-II (C115S) [3]): ~40 µM
Molecule: [Ca+2].[Cl-].[Cl-] [CaCl2]
EC50 (intact μ-calpain): 5 to 50 µM

proteolysis of C105S m-calpain by μI-II when substituted for Ca2+ (μI-II [4]): no proteolysis
ability to substitute for CaCl2 in the intrinsic tryptophan fluorescence change (μI-II (C115S) [1]): unable to substitute
Molecule: [Cl-].[Cl-].[Mg+2] [MgCl2]

ability to substitute for CaCl2 in the intrinsic tryptophan fluorescence change (μI-II (C115S) [1]): unable to substitute
Molecule: [Cl-].[Cl-].[Zn+2] [ZnCl2]
